Bounds are passed on as bounds.

Broadly, the IC50 is the point on the concentration scale where inhibition reaches its midpoint. A high value points to lower potency.

The target of this test is MAPK14 (human) (UniProt Q16539). The test is described as follows: Inhibition of MAPK14 Kinase Activity.
Sequence of MAPK14 (human) (Q16539 whole entry, looked up): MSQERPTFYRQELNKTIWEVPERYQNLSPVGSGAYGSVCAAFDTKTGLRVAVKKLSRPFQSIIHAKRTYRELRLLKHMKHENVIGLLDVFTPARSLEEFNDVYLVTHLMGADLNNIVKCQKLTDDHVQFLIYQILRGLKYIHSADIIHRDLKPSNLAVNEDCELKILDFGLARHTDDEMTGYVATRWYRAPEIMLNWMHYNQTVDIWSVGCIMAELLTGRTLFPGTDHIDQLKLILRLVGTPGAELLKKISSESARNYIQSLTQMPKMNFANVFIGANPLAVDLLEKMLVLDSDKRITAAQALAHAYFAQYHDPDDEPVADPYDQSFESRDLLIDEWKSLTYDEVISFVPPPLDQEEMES
For the compound `O=C(NC1CCCCC1)c1csc(-c2c(-c3ccc(F)cc3)ncn2C2CCNCC2)n1`, the IC50 is not above 1000 nM.
The figure for `COc1cc(C=CC(=O)N2CCN(Cc3nc(-c4ccc(F)cc4)c(-c4nc(C(=O)NC(C)C)cs4)o3)CC2)ccc1O` is not above 1000 nM; for `CC(C)NC(=O)c1csc(-c2oc(CN3CCN(C(=O)c4cccc(Cl)c4[N+](=O)[O-])CC3)nc2-c2ccc(F)cc2)n1` it is not above 1000 nM.
To `COc1ccc(CNC(=O)c2csc(-c3c(-c4ccc(F)cc4)n[nH]c3C3CCNCC3)n2)cc1` belongs not above 1000 nM; to `CC(C)NC(=O)c1csc(-c2oc(CNC(=O)C3CCCO3)nc2-c2ccc(F)cc2)n1` (stereo not given), not above 1000 nM; to `CC(C)NC(=O)c1csc(-c2c(-c3ccc(F)cc3)n[nH]c2C2CCN(C(=O)c3cccc4ccccc34)CC2)n1`, not above 1000 nM.
To `Cc1nc(-c2ccc(F)cc2)c(-c2nc(C(=O)NCc3ccncc3)cs2)s1` belongs not above 1000 nM; to `Cc1nc(-c2ccc(F)cc2)c(-c2nc(C(=O)NCCc3ccc(Cl)cc3)cs2)s1`, not above 1000 nM.
In turn, `Cc1onc(-c2ccccc2)c1-c1ccn(C(=O)NC(C)C)n1` showed an IC50 not above 1000 nM.
The figure for `CC(C)NC(=O)c1csc(-c2c(-c3ccc(F)cc3)ncn2C2CCNCC2)n1` is not above 1000 nM.
`CC(C)NC(=O)c1csc(-c2c(-c3ccc(F)cc3)noc2CN)n1`: the IC50 was not above 1000 nM.
The figure for `Cc1nc(-c2ccc(F)cc2)c(-c2nc(C(=O)NCc3ccc(C)c(C)c3)cs2)s1` is not above 1000 nM; for `Cc1cc(C)c(C(=O)N2CCN(Cc3nc(-c4ccc(F)cc4)c(-c4nc(C(=O)NC(C)C)cs4)o3)CC2)c(C)c1` it is not above 1000 nM; for `CC(C)NC(=O)c1csc(-c2oc(CNC(=O)c3cccc(Cl)c3[N+](=O)[O-])nc2-c2ccc(F)cc2)n1` it is not above 1000 nM.
Regarding `Cc1nc(-c2ccc(F)cc2)c(-c2nc(C(=O)Nc3ccc4c(c3)OCCO4)cs2)s1`, the IC50 is not above 1000 nM.
To `O=C(NC1CCCC1)c1csc(-c2c(-c3ccc(F)cc3)n[nH]c2C2CCNCC2)n1` belongs not above 1000 nM; to `C#CCNC(=O)c1csc(-c2c(-c3ccc(F)cc3)ncn2C2CCNCC2)n1`, not above 1000 nM.
In the case of `CC(C)NC(=O)c1csc(-c2oc(CNC(=O)c3cc(Br)ccc3Cl)nc2-c2ccc(F)cc2)n1`, the IC50 is not above 1000 nM.
The figure for `CC(C)NC(=O)c1csc(-c2oc(CN3CCN(C(=O)c4cc(Cl)ccc4O)CC3)nc2-c2ccc(F)cc2)n1` is not above 1000 nM; for `Cc1ccc(S(=O)(=O)NCCNCc2nc(-c3ccc(F)cc3)c(-c3nc(C(=O)NC(C)C)cs3)o2)cc1` it is not above 1000 nM.
The compound `Cc1nc(-c2ccc(F)cc2)c(-c2nc(C(=O)N[C@@H](C)c3ccccc3)cs2)s1` had an IC50 not above 1000 nM.
Turning to `CC(C)NC(=O)c1csc(-c2oc(CNC(=O)c3ccc(Cl)cc3Cl)nc2-c2ccc(F)cc2)n1`, the IC50 is not above 1000 nM.
The figure for `CC(C)NC(=O)c1csc(-c2oc(CNC(=O)CCc3ccccc3O)nc2-c2ccc(F)cc2)n1` is not above 1000 nM; for `Cc1nc(-c2ccc(F)cc2)c(-c2nc(C(=O)NCCO)cs2)s1` it is not above 1000 nM.
The compound `Cc1nc(-c2ccc(F)cc2)c(-c2nc(C(=O)NCC3CCCCC3)cs2)s1` gave an IC50 not above 1000 nM.
The figure for `CC(C)NC(=O)c1csc(-c2oc(CNC(=O)C(C)c3ccc(O)cc3)nc2-c2ccc(F)cc2)n1` (stereo not given) is not above 1000 nM.
To `O=C(NCC(F)(F)F)c1csc(-c2c(-c3ccc(F)cc3)ncn2C2CCNCC2)n1` belongs not above 1000 nM; to `CC(C)NC(=O)c1csc(-c2oc(CN3CCN(C(=O)c4ccccc4O)CC3)nc2-c2ccc(F)cc2)n1`, not above 1000 nM.
To `CC(C)NC(=O)c1csc(-c2c(-c3ccc(F)cc3)n[nH]c2C2CCN(C(=O)C3CC(O)CN3C(=O)OC(C)(C)C)CC2)n1` (stereo not given) belongs not above 1000 nM; to `Cc1cccc([N+](=O)[O-])c1C(=O)N1CCN(Cc2nc(-c3ccc(F)cc3)c(-c3nc(C(=O)NC(C)C)cs3)o2)CC1`, not above 1000 nM; to `CC(=O)c1cccc(NC(=O)c2csc(-c3sc(C)nc3-c3ccc(F)cc3)n2)c1`, not above 1000 nM.
`CC(C)NC(=O)c1csc(-c2oc(CNC(=O)c3c(F)c(F)c(F)c(F)c3F)nc2-c2ccc(F)cc2)n1` gave a half-maximal inhibitory concentration (IC50) not above 1000 nM.
The figure for `Cc1nc(-c2ccc(F)cc2)c(-c2nc(C(=O)N3CCCC3CO)cs2)s1` (stereo not given) is not above 1000 nM; for `N#CCNC(=O)c1csc(-c2c(-c3ccc(F)cc3)n[nH]c2C2CCNCC2)n1` it is not above 1000 nM.
The figure for `CC(C)NC(=O)c1csc(-c2oc(CNC(=O)c3cc([N+](=O)[O-])ccc3O)nc2-c2ccc(F)cc2)n1` is not above 1000 nM; for `Cc1nc(-c2ccc(F)cc2)c(-c2nc(C(=O)NCCCN3CCCC3=O)cs2)s1` it is not above 1000 nM; for `O=C(NCCO)c1csc(-c2c(-c3ccc(F)cc3)n[nH]c2C2CCNCC2)n1` it is not above 1000 nM.
`Cc1[nH]nc(-c2ccc(F)cc2)c1-c1nc(C(=O)NCc2cccnc2)cs1` returned an IC50 not above 1000 nM.
To `Cc1nc(-c2ccc(F)cc2)c(-c2nc(C(=O)NCc3ccccc3F)cs2)s1` belongs not above 1000 nM.
The figure for `CC(C)NC(=O)c1coc(-c2c(-c3ccc(F)cc3)noc2C2CCNCC2)n1` is not above 1000 nM.
In turn, `CC(C)NC(=O)c1csc(-c2[nH]c(CO)nc2-c2ccc(F)cc2)n1` gave an IC50 not above 1000 nM.
The compound `Cc1nc(-c2ccc(F)cc2)c(-c2nc(C(=O)NC3CCN(Cc4ccccc4)C3)cs2)s1` (stereo not given) registered an IC50 not above 1000 nM.
To `COc1cccc(CNC(=O)c2csc(-c3sc(C)nc3-c3ccc(F)cc3)n2)c1` belongs not above 1000 nM; to `CC(C)NC(=O)c1csc(-c2oc(CNC(=O)Cc3ccccc3O)nc2-c2ccc(F)cc2)n1`, not above 1000 nM; to `COCCNC(=O)c1csc(-c2c(-c3ccc(F)cc3)n[nH]c2C2CCNCC2)n1`, not above 1000 nM.
The figure for `CC(C)NC(=O)c1csc(-c2c(-c3ccc(F)cc3)n[nH]c2C2CCN(C(=O)c3ccnc(Cl)c3)CC2)n1` is not above 1000 nM; for `CC(C)NC(=O)c1csc(-c2oc(CNC(=O)c3c(Cl)cc(Cl)cc3Cl)nc2-c2ccc(F)cc2)n1` it is not above 1000 nM; for `Cc1nc(-c2ccc(F)cc2)c(-c2nc(C(=O)Nc3c(C)cccc3C(C)(C)C)cs2)s1` it is not above 1000 nM.
To `CC(C)NC(=O)c1csc(-c2oc(CNC(=O)Cc3cccc(O)c3)nc2-c2ccc(F)cc2)n1` belongs not above 1000 nM.
Consider `CC(C)NC(=O)c1csc(-c2oc(CN3CCN(C(=O)CC#N)CC3)nc2-c2ccc(F)cc2)n1`, for which the IC50 is not above 1000 nM.
To `CC(C)NC(=O)c1csc(-c2c(-c3ccc(F)cc3)n[nH]c2C2CCN(C(=O)CC#N)CC2)n1` belongs not above 1000 nM; to `CC(C)NC(=O)c1csc(-c2oc(CN3CCN(C(=O)Cc4cccc(O)c4)CC3)nc2-c2ccc(F)cc2)n1`, not above 1000 nM; to `COCc1onc(-c2ccc(Cl)cc2)c1-c1ccn(C(=O)NC(C)C)n1`, not above 1000 nM.
The figure for `Cc1cccc(N2CCN(C(=O)c3csc(-c4sc(C)nc4-c4ccc(F)cc4)n3)CC2C)c1` (stereo not given) is not above 1000 nM; for `CC(CC(=O)N1CCN(Cc2nc(-c3ccc(F)cc3)c(-c3nc(C(=O)NC(C)C)cs3)o2)CC1)CC(C)(C)C` (stereo not given) it is not above 1000 nM; for `CC(C)NC(=O)c1csc(-c2c(-c3ccc(F)cc3)n[nH]c2C2CCN(C(=O)C(C)(C)O)CC2)n1` it is not above 1000 nM.
`Cc1nc(-c2ccc(F)cc2)c(-c2nc(C(=O)Nc3cccc(Cl)c3C)cs2)s1` had a half-maximal inhibitory concentration (IC50) not above 1000 nM.
To `CC(C)NC(=O)c1csc(-c2oc(CN(C)C)nc2-c2ccc(F)cc2)n1` belongs not above 1000 nM; to `COc1ccc(NC(=O)c2csc(-c3sc(C)nc3-c3ccc(F)cc3)n2)cc1OC`, not above 1000 nM; to `Cc1nc(-c2ccc(F)cc2)c(-c2nc(C(=O)NCc3ccc(Cl)c(Cl)c3)cs2)s1`, not above 1000 nM.
The figure for `Cc1nc(-c2ccc(F)cc2)c(-c2nc(C(=O)NCc3ccc(N(C)C)cc3)cs2)s1` is not above 1000 nM; for `COc1ccc(OC)c(CCNC(=O)c2csc(-c3sc(C)nc3-c3ccc(F)cc3)n2)c1` it is not above 1000 nM; for `CC(C)NC(=O)c1csc(-c2oc(CN3CCN(C(=O)c4ccc(OC(C)C)cc4)CC3)nc2-c2ccc(F)cc2)n1` it is not above 1000 nM.
Compound `CC(C)NC(=O)c1csc(-c2c(-c3ccccc3)n[nH]c2C2CCN(C(=O)c3ccc(Cl)c([N+](=O)[O-])c3)CC2)n1` registered an IC50 not above 1000 nM.
The figure for `CC(C)NC(=O)c1csc(-c2c(-c3ccc(F)cc3)ncn2C)n1` is not above 1000 nM; for `CC(C)NC(=O)c1csc(-c2oc(CNC(=O)c3cc([N+](=O)[O-])ccc3Cl)nc2-c2ccc(F)cc2)n1` it is not above 1000 nM.
To `CC(C)NC(=O)c1csc(-c2oc(CNC(=O)c3cc(Cl)ccc3[N+](=O)[O-])nc2-c2ccc(F)cc2)n1` belongs not above 1000 nM; to `Cc1nc(-c2ccc(F)cc2)c(-c2nc(C(=O)NC(C)C)cs2)s1`, not above 1000 nM.
To `CC(C)NC(=O)c1csc(-c2oc(CNC(=O)C3CN(C(=O)OC(C)(C)C)CCN3)nc2-c2ccc(F)cc2)n1` (stereo not given) belongs not above 1000 nM; to `Cc1ccc(O)c(C(=O)N2CCN(Cc3nc(-c4ccc(F)cc4)c(-c4nc(C(=O)NC(C)C)cs4)o3)CC2)c1`, not above 1000 nM; to `CC(C)NC(=O)c1csc(-c2oc(CNC(=O)c3c(F)cccc3F)nc2-c2ccc(F)cc2)n1`, not above 1000 nM.
On to `CC(C)NC(=O)c1csc(-c2c(-c3ccc(F)cc3)n[nH]c2C2CCN(C(=O)c3cncc(Br)c3)CC2)n1`, for which the IC50 is not above 1000 nM.
To `Cc1nc(-c2ccc(F)cc2)c(-c2nc(C(=O)NCCc3c[nH]c4ccccc34)cs2)s1` belongs not above 1000 nM; to `Cc1nc(-c2ccc(F)cc2)c(-c2nc(C(=O)NCCCn3ccnc3)cs2)s1`, not above 1000 nM.
With `CCN(CC)CCNC(=O)c1csc(-c2sc(C)nc2-c2ccc(F)cc2)n1`, the IC50 was not above 1000 nM.
To `COc1ccccc1C=CC(=O)N1CCN(Cc2nc(-c3ccc(F)cc3)c(-c3nc(C(=O)NC(C)C)cs3)o2)CC1` belongs not above 1000 nM.
The figure for `CCOC(=O)CC(C)NC(=O)c1csc(-c2sc(C)nc2-c2ccc(F)cc2)n1` (stereo not given) is not above 1000 nM; for `COc1cc(OC)c(C(=O)NCc2nc(-c3ccc(F)cc3)c(-c3nc(C(=O)NC(C)C)cs3)o2)c(OC)c1` it is not above 1000 nM.
The figure for `O=C(NC1CCCC1)c1csc(-c2c(-c3ccc(F)cc3)ncn2C2CCNCC2)n1` is not above 1000 nM; for `COc1ccc(CNC(=O)c2csc(-c3c(-c4ccc(F)cc4)n[nH]c3C3CCNCC3)n2)cc1O` it is not above 1000 nM.

The record behind these values is the Kinase Knowledgebase extract (Sharma et al. 2016).
